Laboratory results as given in patent US12084472B2 (Ardelyx, Inc., priority 2015, dated 2024).

Molecular target: T1, human TGR5 (Homo sapiens, UniProt Q8TDU6)
T1 construct: expressed in transfected cells; host or cells: HEK293
T1 sequence (Q8TDU6 1-330): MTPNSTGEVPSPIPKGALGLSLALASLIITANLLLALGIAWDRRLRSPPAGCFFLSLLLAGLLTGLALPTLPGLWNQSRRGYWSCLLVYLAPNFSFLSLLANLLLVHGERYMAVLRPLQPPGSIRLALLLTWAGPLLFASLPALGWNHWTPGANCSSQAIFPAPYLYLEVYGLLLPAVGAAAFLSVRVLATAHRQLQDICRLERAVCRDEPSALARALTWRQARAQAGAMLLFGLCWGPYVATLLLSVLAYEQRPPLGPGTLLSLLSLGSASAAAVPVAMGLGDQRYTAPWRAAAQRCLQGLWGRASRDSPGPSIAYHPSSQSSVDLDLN
Assay: Cell-based TGR5 assay (cAMP generation, HTRF)
Details: HEK293 cells stably transfected with human TGR5; cAMP by HTRF; 30 minutes at 37° C.; read-out: pEC50 Human TGR5 (converted)
Outline: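 Read-out was HTRF detection of cAMP, converted to concentration via a standard curve and fitted (3-parameter logistic) for pEC50 and maximal response. Agonist stimulation used HEK293 cells stably transfected with human TGR5, incubated 30 min at 37° C in IBMX-containing buffer at 0.05 nM to 10 μM compound.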

Structure (SMILES) | EC50
CC(CCCCN(C)C(=O)[C@@H](O)[C@@H](O)[C@H](O)[C@@H](O)CO)c1ccc(Cl)c(CNC2(c3cnccc3-c3ccccc3OC3CC3)CC2)c1 (stereo partly drawn) [Compound I-281, (2S,3S,4R,5S)-N-(5-{4-chloro-3-[({1-[4-(2-cyclopropoxyphenyl)pyridin-3-yl]cyclopropyl}amino)methyl]phenyl}hexyl)-2,3,4,5,6-pentahydroxy-N-methylhexanamide] | < 100 nM
COCCN(CCCC(C)c1ccc(Cl)c(CNC2(c3cnccc3-c3ccccc3OC3CC3)CC2)c1)C(=O)[C@@H](O)[C@@H](O)[C@H](O)[C@@H](O)CO (stereo partly drawn) [Compound I-282, (2S,3S,4R,5S)-N-(4-{4-chloro-3-[({1-[4-(2-cyclopropoxyphenyl)pyridin-3-yl]cyclopropyl}amino)methyl]phenyl}pentyl)-2,3,4,5,6-pentahydroxy-N-(2-methoxyethyl)hexanamide] | < 100 nM
CC(CCCN(CCCCO)C(=O)[C@@H](O)[C@@H](O)[C@H](O)[C@@H](O)CO)c1ccc(Cl)c(CNC2(c3cnccc3-c3ccccc3OC3CC3)CC2)c1 (stereo partly drawn) [Compound I-283, (2S,3S,4R,5S)-N-(4-{4-chloro-3-[({1-[4-(2-cyclopropoxyphenyl)pyridin-3-yl]cyclopropyl}amino)methyl]phenyl}pentyl)-2,3,4,5,6-pentahydroxy-N-(4-hydroxybutyl)hexanamide] | < 100 nM
COCCCN(CCCC(C)c1ccc(Cl)c(CNC2(c3cnccc3-c3ccccc3OC3CC3)CC2)c1)C(=O)[C@@H](O)[C@@H](O)[C@H](O)[C@@H](O)CO (stereo partly drawn) [Compound I-284, (2S,3S,4R,5S)-N-(4-{4-chloro-3-[({1-[4-(2-cyclopropoxyphenyl)pyridin-3-yl]cyclopropyl}amino)methyl]phenyl}pentyl)-2,3,4,5,6-pentahydroxy-N-(3-methoxypropyl)hexanamide] | < 100 nM
CC(CCCN(C(=O)[C@@H](O)[C@@H](O)[C@H](O)[C@@H](O)CO)C1CCOCC1)c1ccc(Cl)c(CNC2(c3cnccc3-c3ccccc3OC3CC3)CC2)c1 (stereo partly drawn) [Compound I-285, (2S,3S,4R,5S)-N-(4-{4-chloro-3-[({1-[4-(2-cyclopropoxyphenyl)pyridin-3-yl]cyclopropyl}amino)methyl]phenyl}pentyl)-2,3,4,5,6-pentahydroxy-N-(oxan-4-yl)hexanamide] | 126 to 1000 nM
CC(CCCN(CCOCCO)C(=O)[C@@H](O)[C@@H](O)[C@H](O)[C@@H](O)CO)c1ccc(Cl)c(CNC2(c3cnccc3-c3ccccc3OC3CC3)CC2)c1 (stereo partly drawn) [Compound I-286, (2S,3S,4R,5S)-N-(4-{4-chloro-3-[({1-[4-(2-cyclopropoxyphenyl)pyridin-3-yl]cyclopropyl}amino)methyl]phenyl}pentyl)-2,3,4,5,6-pentahydroxy-N-[2-(2-hydroxyethoxy)ethyl]hexanamide] | < 100 nM
CC(CCCN(CC1CCOCC1)C(=O)[C@@H](O)[C@@H](O)[C@H](O)[C@@H](O)CO)c1ccc(Cl)c(CNC2(c3cnccc3-c3ccccc3OC3CC3)CC2)c1 (stereo partly drawn) [Compound I-287, (2S,3S,4R,5S)-N-(4-{4-chloro-3-[({1-[4-(2-cyclopropoxyphenyl)pyridin-3-yl]cyclopropyl}amino)methyl]phenyl}pentyl)-2,3,4,5,6-pentahydroxy-N-(oxan-4-ylmethyl)hexanamide] | < 100 nM
CC(CCCCN(CCOCCO)C(=O)[C@@H](O)[C@@H](O)[C@H](O)[C@@H](O)CO)c1ccc(Cl)c(CNC2(c3cnccc3-c3ccccc3OC3CC3)CC2)c1 (stereo partly drawn) [Compound I-288, (2S,3S,4R,5S)-N-(5-{4-chloro-3-[({1-[4-(2-cyclopropoxyphenyl)pyridin-3-yl]cyclopropyl}amino)methyl]phenyl}hexyl)-2,3,4,5,6-pentahydroxy-N-[2-(2-hydroxyethoxy)ethyl]hexanamide] | < 100 nM
CC(CCCN(CCS(C)(=O)=O)C(=O)[C@@H](O)[C@@H](O)[C@H](O)[C@@H](O)CO)c1ccc(Cl)c(CNC2(c3cnccc3-c3ccccc3OC3CC3)CC2)c1 (stereo partly drawn) [Compound I-289, (2S,3S,4R,5S)-N-(4-{4-chloro-3-[({1-[4-(2-cyclopropoxyphenyl)pyridin-3-yl]cyclopropyl}amino)methyl]phenyl}pentyl)-2,3,4,5,6-pentahydroxy-N-(2-methanesulfonylethyl)hexanamide] | < 100 nM
CC(=O)NCCCCN(CCCC(C)c1ccc(Cl)c(CNC2(c3cnccc3-c3ccccc3OC3CC3)CC2)c1)C(=O)[C@@H](O)[C@@H](O)[C@H](O)[C@@H](O)CO (stereo partly drawn) [Compound I-290, (2S,3S,4R,5S)-N-(4-{4-chloro-3-[({1-[4-(2-cyclopropoxyphenyl)pyridin-3-yl]cyclopropyl}amino)methyl]phenyl}pentyl)-N-(4-acetamidobutyl)-2,3,4,5,6-pentahydroxyhexanamide] | < 100 nM

Results, then the compound that gave them:

EC50 | Structure (SMILES)
< 100 nM | CC(CCCCN(CCS(C)(=O)=O)C(=O)[C@@H](O)[C@@H](O)[C@H](O)[C@@H](O)CO)c1ccc(Cl)c(CNC2(c3cnccc3-c3ccccc3OC3CC3)CC2)c1 (stereo partly drawn) [Compound I-291, (2S,3S,4R,5S)-N-(5-{4-chloro-3-[({1-[4-(2-cyclopropoxyphenyl)pyridin-3-yl]cyclopropyl}amino)methyl]phenyl}hexyl)-2,3,4,5,6-pentahydroxy-N-(2-methanesulfonylethyl)hexanamide]
< 100 nM | CC(CCCN(CCCS(C)(=O)=O)C(=O)[C@@H](O)[C@@H](O)[C@H](O)[C@@H](O)CO)c1ccc(Cl)c(CNC2(c3cnccc3-c3ccccc3OC3CC3)CC2)c1 (stereo partly drawn) [Compound I-292, (2S,3S,4R,5S)-N-(4-{4-chloro-3-[({1-[4-(2-cyclopropoxyphenyl)pyridin-3-yl]cyclopropyl}amino)methyl]phenyl}pentyl)-2,3,4,5,6-pentahydroxy-N-(3-methanesulfonylpropyl)hexanamide]
< 100 nM | CCS(=O)(=O)CCN(CCCC(C)c1ccc(Cl)c(CNC2(c3cnccc3-c3ccccc3OC3CC3)CC2)c1)C(=O)[C@@H](O)[C@@H](O)[C@H](O)[C@@H](O)CO (stereo partly drawn) [Compound I-293, (2S,3S,4R,5S)-N-(4-{4-chloro-3-[({1-[4-(2-cyclopropoxyphenyl)pyridin-3-yl]cyclopropyl}amino)methyl]phenyl}pentyl)-N-[2-(ethanesulfonyl)ethyl]-2,3,4,5,6-pentahydroxyhexanamide]
< 100 nM | CC(CCCN(CCCN1CCCC1=O)C(=O)[C@@H](O)[C@@H](O)[C@H](O)[C@@H](O)CO)c1ccc(Cl)c(CNC2(c3cnccc3-c3ccccc3OC3CC3)CC2)c1 (stereo partly drawn) [Compound I-294, (2S,3S,4R,5S)-N-(4-{4-chloro-3-[({1-[4-(2-cyclopropoxyphenyl)pyridin-3-yl]cyclopropyl}amino)methyl]phenyl}pentyl)-2,3,4,5,6-pentahydroxy-N-[3-(2-oxopyrrolidin-1-yl)propyl]hexanamide]
< 100 nM | CC(CCCN(C(=O)[C@@H](O)[C@@H](O)[C@H](O)[C@@H](O)CO)C1CCS(=O)(=O)CC1)c1ccc(Cl)c(CNC2(c3cnccc3-c3ccccc3OC3CC3)CC2)c1 (stereo partly drawn) [Compound I-295, (2S,3S,4R,5S)-N-(4-{4-chloro-3-[({1-[4-(2-cyclopropoxyphenyl)pyridin-3-yl]cyclopropyl}amino)methyl]phenyl}pentyl)-N-(1,1-dioxo-1λ^6-thian-4-yl)-2,3,4,5,6-pentahydroxyhexanamide]
